Test results published in ChEMBL document CHEMBL1201862, “PubChem BioAssay data set” (2004).
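1) Cells in 96-well plates. 2) Compound, 48 h, 5 concentrations. 3) Linear interpolation between surrounding doses. 4) Unreached endpoint = highest concentration. GI50 = concentration required for 50% inhibition of growth.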 Calls of active or inactive are those of the source. Rule as the data show it: active = GI50 up to about 1.1 µM and inactive = higher.

Assays:
Experiment in all cases: DTP human tumour cell line panel, 48 h
MOLT-4 = tested on: MOLT-4
HCT-15 = tested on: HCT-15
M19-MEL = tested on: M19-MEL
OVCAR-5 = tested on: OVCAR-5
HL-60 = tested on: HL-60
HOP-62 = tested on: HOP-62
IGROV-1 = tested on: IGROV-1
NCI-H522 = tested on: NCI-H522
M14 = tested on: M14
HCT-116 = tested on: HCT-116
HOP-92 = tested on: HOP-92
NCI-H23 = tested on: NCI-H23
SN12C = tested on: SN12C
KM-20L2 = tested on: KM-20L2
SW-620 = tested on: SW-620
ACHN = tested on: ACHN
SK-MEL-28 = tested on: SK-MEL-28
LXFL 529 = tested on: LXFL 529
A498 = tested on: A498
TK-10 = tested on: TK-10
UACC-62 = tested on: UACC-62
SK-MEL-5 = tested on: SK-MEL-5
OVCAR-3 = tested on: OVCAR-3
U-251 = tested on: U-251
SF-539 = tested on: SF-539
A549 = tested on: A549
SF-268 = tested on: SF-268
SNB-19 = tested on: SNB-19
DMS-273 = tested on: DMS-273
RXF 393 = tested on: RXF 393
K562 = tested on: K562
SF-295 = tested on: SF-295
UO-31 = tested on: UO-31
SK-MEL-2 = tested on: SK-MEL-2
KM12 = tested on: KM12
HCC 2998 = tested on: HCC 2998
EKVX = tested on: EKVX
NCI-H460 = tested on: NCI-H460
UACC-257 = tested on: UACC-257
SK-OV-3 = tested on: SK-OV-3
NCI-H226 = tested on: NCI-H226
LOX IMVI = tested on: LOX IMVI
XF498 = tested on: XF498
CCRF-CEM = tested on: CCRF-CEM
SR = tested on: SR
SNB-78 = tested on: SNB-78
HT-29 = tested on: HT-29
OVCAR-8 = tested on: OVCAR-8
RPMI-8226 = tested on: RPMI-8226
DMS-114 = tested on: DMS-114
OVCAR-4 = tested on: OVCAR-4
CAKI-1 = tested on: CAKI-1
Malme-3M = tested on: Malme-3M
COLO 205 = tested on: COLO 205
786-0 = tested on: 786-0
DLD-1 = tested on: DLD-1
SNB-75 = tested on: SNB-75

`CCN(CC)/[N+]([O-])=N/OC` was tested, and the GI50 (MOLT-4) was > 100 µM (inactive), the GI50 (HCT-15) was > 100 µM and the GI50 (M19-MEL) was > 100 µM (inactive). The GI50 (OVCAR-5) was > 100 µM (inactive), the GI50 (HL-60) was > 100 µM (inactive) and the GI50 (HOP-62) was > 100 µM (inactive). The GI50 (IGROV-1) was > 100 µM (inactive), the GI50 (NCI-H522) was > 100 µM (inactive) and the GI50 (M14) was > 100 µM (inactive). For the same molecule, the GI50 (HCT-116) was > 100 µM (inactive), the GI50 (HOP-92) was > 100 µM (inactive) and the GI50 (NCI-H23) was > 100 µM (inactive). For the same molecule, the GI50 (SN12C) was > 100 µM (inactive), the GI50 (KM-20L2) was > 100 µM (inactive) and the GI50 (SW-620) was > 100 µM (inactive). The GI50 (ACHN) was > 100 µM (inactive), the GI50 (SK-MEL-28) was > 100 µM (inactive) and the GI50 (LXFL 529) was > 100 µM (inactive). The GI50 (A498) was > 100 µM (inactive), the GI50 (TK-10) was > 100 µM (inactive) and the GI50 (UACC-62) was > 100 µM (inactive). For the same molecule, the GI50 (SK-MEL-5) was > 100 µM (inactive), the GI50 (OVCAR-3) was > 100 µM (inactive) and the GI50 (U-251) was > 100 µM (inactive). For the same molecule, the GI50 (SF-539) was > 100 µM (inactive), the GI50 (A549) was > 100 µM (inactive) and the GI50 (SF-268) was > 100 µM (inactive). The GI50 (SNB-19) was > 100 µM (inactive), the GI50 (DMS-273) was > 100 µM (inactive) and the GI50 (RXF 393) was > 100 µM (inactive). The GI50 (K562) was > 100 µM (inactive), the GI50 (SF-295) was > 100 µM (inactive) and the GI50 (UO-31) was > 100 µM (inactive). For the same molecule, the GI50 (SK-MEL-2) was > 100 µM (inactive), the GI50 (KM12) was > 100 µM (inactive) and the GI50 (HCC 2998) was > 100 µM (inactive). For the same molecule, the GI50 (EKVX) was > 100 µM (inactive), the GI50 (NCI-H460) was > 100 µM (inactive) and the GI50 (UACC-257) was > 100 µM (inactive). For the same molecule, the GI50 (SK-OV-3) was > 100 µM (inactive), the GI50 (NCI-H226) was > 100 µM (inactive) and the GI50 (LOX IMVI) was > 100 µM (inactive). For the same molecule, the GI50 (XF498) was > 100 µM (inactive), the GI50 (CCRF-CEM) was > 100 µM (inactive) and the GI50 (SR) was > 100 µM (inactive). For the same molecule, the GI50 (SNB-78) was > 100 µM (inactive), the GI50 (HT-29) was > 100 µM (inactive) and the GI50 (OVCAR-8) was > 100 µM (inactive).
For `O=C1NC(c2ccc(O)cc2)C2CCC1C2` (stereo not given), the GI50 (MOLT-4) was > 100 µM (inactive), the GI50 (RPMI-8226) was > 100 µM (inactive) and the GI50 (M19-MEL) was > 100 µM (inactive). For the same molecule, the GI50 (DMS-114) was > 100 µM (inactive), the GI50 (OVCAR-5) was > 100 µM (inactive) and the GI50 (HL-60) was > 100 µM (inactive). The GI50 (HOP-62) was > 100 µM (inactive), the GI50 (IGROV-1) was > 100 µM (inactive) and the GI50 (OVCAR-4) was > 100 µM (inactive). The GI50 (NCI-H522) was > 100 µM (inactive), the GI50 (M14) was > 100 µM (inactive) and the GI50 (HCT-116) was > 100 µM (inactive). The GI50 (CAKI-1) was > 100 µM (inactive), the GI50 (HOP-92) was > 100 µM (inactive) and the GI50 (NCI-H23) was > 100 µM (inactive). For the same molecule, the GI50 (SN12C) was > 100 µM (inactive), the GI50 (KM-20L2) was > 100 µM (inactive) and the GI50 (SW-620) was > 100 µM (inactive). The GI50 (ACHN) was > 100 µM (inactive), the GI50 (Malme-3M) was > 100 µM (inactive) and the GI50 (SK-MEL-28) was > 100 µM (inactive). The GI50 (LXFL 529) was > 100 µM (inactive), the GI50 (A498) was > 100 µM (inactive) and the GI50 (TK-10) was > 100 µM (inactive). For the same molecule, the GI50 (UACC-62) was > 100 µM (inactive), the GI50 (SK-MEL-5) was > 100 µM (inactive) and the GI50 (OVCAR-3) was > 100 µM (inactive). For the same molecule, the GI50 (U-251) was > 100 µM (inactive), the GI50 (A549) was > 100 µM (inactive) and the GI50 (SF-268) was > 100 µM (inactive). The GI50 (COLO 205) was > 100 µM (inactive), the GI50 (786-0) was > 100 µM (inactive) and the GI50 (SNB-19) was > 100 µM (inactive). For the same molecule, the GI50 (DLD-1) was > 100 µM (inactive), the GI50 (K562) was > 100 µM (inactive) and the GI50 (SF-295) was > 100 µM (inactive). For the same molecule, the GI50 (UO-31) was > 100 µM (inactive), the GI50 (SK-MEL-2) was > 100 µM (inactive) and the GI50 (KM12) was > 100 µM (inactive). The GI50 (SNB-75) was > 100 µM (inactive), the GI50 (HCC 2998) was > 100 µM (inactive) and the GI50 (EKVX) was > 100 µM (inactive). The GI50 (NCI-H460) was > 100 µM (inactive), the GI50 (UACC-257) was > 100 µM (inactive) and the GI50 (SK-OV-3) was > 100 µM (inactive). For the same molecule, the GI50 (NCI-H226) was > 100 µM (inactive), the GI50 (XF498) was > 100 µM (inactive) and the GI50 (CCRF-CEM) was > 100 µM (inactive). For the same molecule, the GI50 (SR) was > 100 µM (inactive), the GI50 (SNB-78) was > 100 µM (inactive) and the GI50 (HT-29) was > 100 µM (inactive). The GI50 (OVCAR-8) was > 100 µM (inactive).
`COC(=O)C1CCc2nnc(-c3ccccc3)n21` (stereo not given) was tested, and the GI50 (MOLT-4) was > 100 µM (inactive), the GI50 (HCT-15) was > 100 µM and the GI50 (RPMI-8226) was > 100 µM (inactive). For the same molecule, the GI50 (M19-MEL) was > 100 µM (inactive), the GI50 (DMS-114) was > 100 µM (inactive) and the GI50 (OVCAR-5) was > 100 µM (inactive). For the same molecule, the GI50 (HL-60) was > 100 µM (inactive), the GI50 (HOP-62) was > 100 µM (inactive) and the GI50 (IGROV-1) was > 100 µM (inactive). For the same molecule, the GI50 (OVCAR-4) was > 100 µM (inactive), the GI50 (NCI-H522) was > 100 µM (inactive) and the GI50 (M14) was > 100 µM (inactive). The GI50 (HCT-116) was > 100 µM (inactive), the GI50 (CAKI-1) was > 100 µM (inactive) and the GI50 (HOP-92) was > 100 µM (inactive). The GI50 (NCI-H23) was > 100 µM (inactive), the GI50 (SN12C) was > 100 µM (inactive) and the GI50 (KM-20L2) was > 100 µM (inactive). For the same molecule, the GI50 (SW-620) was > 100 µM (inactive), the GI50 (ACHN) was > 100 µM (inactive) and the GI50 (Malme-3M) was > 100 µM (inactive). For the same molecule, the GI50 (SK-MEL-28) was > 100 µM (inactive), the GI50 (LXFL 529) was > 100 µM (inactive) and the GI50 (A498) was > 100 µM (inactive). For the same molecule, the GI50 (TK-10) was > 100 µM (inactive), the GI50 (UACC-62) was > 100 µM (inactive) and the GI50 (SK-MEL-5) was > 100 µM (inactive). For the same molecule, the GI50 (OVCAR-3) was > 100 µM (inactive), the GI50 (U-251) was > 100 µM (inactive) and the GI50 (SF-539) was > 100 µM (inactive). The GI50 (A549) was > 100 µM (inactive), the GI50 (SF-268) was > 100 µM (inactive) and the GI50 (COLO 205) was > 100 µM (inactive). The GI50 (786-0) was > 100 µM (inactive), the GI50 (SNB-19) was > 100 µM (inactive) and the GI50 (DMS-273) was > 10 µM (inactive). For the same molecule, the GI50 (DLD-1) was > 100 µM (inactive), the GI50 (RXF 393) was > 100 µM (inactive) and the GI50 (K562) was > 100 µM (inactive). The GI50 (SF-295) was > 100 µM (inactive), the GI50 (UO-31) was > 100 µM (inactive) and the GI50 (SK-MEL-2) was > 100 µM (inactive). The GI50 (KM12) was > 100 µM (inactive), the GI50 (SNB-75) was > 100 µM (inactive) and the GI50 (HCC 2998) was > 100 µM (inactive). For the same molecule, the GI50 (EKVX) was > 100 µM (inactive), the GI50 (NCI-H460) was > 100 µM (inactive) and the GI50 (UACC-257) was > 100 µM (inactive). For the same molecule, the GI50 (NCI-H226) was > 100 µM (inactive), the GI50 (LOX IMVI) was > 100 µM (inactive) and the GI50 (XF498) was > 100 µM (inactive). The GI50 (CCRF-CEM) was > 100 µM (inactive), the GI50 (SNB-78) was > 100 µM (inactive) and the GI50 (HT-29) was > 100 µM (inactive). For the same molecule, the GI50 (OVCAR-8) was > 100 µM (inactive).
